Measurements as given in patent US4442090A, “Absorption-promoting compounds, compositions thereof with pharmaceuticals and/or bases for rectal administration and method of use” (Kyoto Yakuhin Kogyo Kabushiki Kaisha, priority 1980, dated 1984).

Experiments:
[1] = Urinary excretions of AB-PC after administration of AB-PC rectal suppository (human); type: in vivo; details: AB-PC 125 mg (potency); for Urinary excretions of AB-PC (%) (0-6 hr.): added compound 10%, Witepsol H-15, % of dose
Experimental: The thus-obtained suppositories were administered to healthy adult male humans from the anus, and the urinary excretions of AB-PC were determined.

[2] = Urinary excretions of β-lactam antibiotics after rectal suppository (rabbit); type: in vivo; details: Compound (I) 5%, Witepsol H-15
Experimental: The absorption into the circulation through the rectum of the rectal suppositories thus prepared was determined by measuring urinary excretion of the pharmacologically-active substance.
Thus, Sarcina lutea and Bacillus subtilis were used as assay organisms for penicillins and cephalosporins, respectively, and the assays were performed by the paper disk method (cultivation at 37° C. for from 15 to 20 hours).

[3] = Compound (I) 10%, Witepsol H-15, Table 3

CC(=O)O [Acetic acid Na, Acetic acid, reference compound]
Urinary excretions of AB-PC (%) (0-6 hr.) [1]: 3.6%

c1ccc2nc3ccccc3cc2c1 [Acridine, reference compound]
Urinary excretions of AB-PC (%) (0-6 hr.) [1]: 2.1%

c1ccc2occc2c1 [Benzofurane, reference compound]
Urinary excretions of AB-PC (%) (0-6 hr.) [1]: 1.9%

O=C(O)c1ccccc1 [Benzoic acid Na, Benzoic acid, reference compound]
Urinary excretions of AB-PC (%) (0-6 hr.) [1]: 5.6%

O=C(O)CCCCCCCCCC(=O)O [Compound 1-Na, 1,9-Nonamethylendicarboxylic acid]
Urinary excretions of AB-PC (%) (0-6 hr.) [1]: 15.2% | Urinary excretions (%) 0-2 hr. ([2]; Cephalothin 125 mg (potency)): 20.5% | Urinary excretions (%) 2-4 hr. ([2]; Cephalothin 125 mg (potency)): 3.0% | Urinary excretions (%) 4-6 hr. ([2]; Cephalothin 125 mg (potency)): 0.2% | Urinary excretions (%) Total (0-6 hr.) ([2]; Cephalothin 125 mg (potency)): 23.7%

CCCCc1ccc(C(=O)O)cc1 [Compound 4-Na, p-Butylbenzoic acid]
Urinary excretions of AB-PC (%) (0-6 hr.) [1]: 28.6% | Urinary excretions (%) 0-2 hr. ([2]; Cefsulodin 125 mg (potency)): 30.5% | Urinary excretions (%) 2-4 hr. ([2]; Cefsulodin 125 mg (potency)): 15.0% | Urinary excretions (%) 4-6 hr. ([2]; Cefsulodin 125 mg (potency)): 1.1% | Urinary excretions (%) Total (0-6 hr.) ([2]; Cefsulodin 125 mg (potency)): 45.6%

O=C(O)COc1cccc2ccccc12 [Compound 8-Na, α-Napthoxacetic acid]
Urinary excretions of AB-PC (%) (0-6 hr.) [1]: 15.1%

CCCCCCCCCCCC(=O)N(C)CC(=O)O [Compound 10-Na, N--Lauroylsarcosine]
Urinary excretions (%) 0-2 hr. ([2]; Sulbenicillin 125 mg (potency)): 33.5% | Urinary excretions (%) 2-4 hr. ([2]; Sulbenicillin 125 mg (potency)): 10.0% | Urinary excretions (%) 4-6 hr. ([2]; Sulbenicillin 125 mg (potency)): 1.0% | Urinary excretions (%) Total (0-6 hr.) ([2]; Sulbenicillin 125 mg (potency)): 43.5%

CC1CCC(C(C)C)C(OCC(=O)O)C1 [Compound 11-Na, L-Menthoxyacetic acid]
Urinary excretions of AB-PC (%) (0-6 hr.) [1]: 20.0%

CCCCCCCCCCNC(=O)CCC(=O)O [Compound 12-Na, N--(n-Decyl)succinamic acid]
Urinary excretions (%) 0-2 hr. ([2]; FK-749 125 mg (potency)): 40.1% | Urinary excretions (%) 2-4 hr. ([2]; FK-749 125 mg (potency)): 18.0% | Urinary excretions (%) 4-6 hr. ([2]; FK-749 125 mg (potency)): 2.0% | Urinary excretions (%) Total (0-6 hr.) ([2]; FK-749 125 mg (potency)): 60.1%

CCCCCCCCCCNC(=O)/C=C\C(=O)O [Compound 13-Na, N--(n-Decyl)maleamic acid]
Urinary excretions (%) 0-2 hr. ([2]; FK-749 125 mg (potency)): 39.1% | Urinary excretions (%) 2-4 hr. ([2]; FK-749 125 mg (potency)): 18.0% | Urinary excretions (%) 4-6 hr. ([2]; FK-749 125 mg (potency)): 2.1% | Urinary excretions (%) Total (0-6 hr.) ([2]; FK-749 125 mg (potency)): 59.2%

CCCCCCCCNC(=O)c1ccccc1C(=O)O [Compound 14-Na, 2-Carboxy-N--(n-octyl)benzamide]
Urinary excretions (%) 0-2 hr. ([2]; FK-749 125 mg (potency)): 41.2% | Urinary excretions (%) 2-4 hr. ([2]; FK-749 125 mg (potency)): 19.0% | Urinary excretions (%) 4-6 hr. ([2]; FK-749 125 mg (potency)): 1.8% | Urinary excretions (%) Total (0-6 hr.) ([2]; FK-749 125 mg (potency)): 62.0%

CCCCN(CCCC)C(=O)CCC(=O)O [Compound 15-Na, N,N--Di-(n-butyl)succinamic acid]
Urinary excretions (%) 0-2 hr. ([2]; Cefmetazole 125 mg (potency)): 44.0% | Urinary excretions (%) 2-4 hr. ([2]; Cefmetazole 125 mg (potency)): 20.0% | Urinary excretions (%) 4-6 hr. ([2]; Cefmetazole 125 mg (potency)): 1.0% | Urinary excretions (%) Total (0-6 hr.) ([2]; Cefmetazole 125 mg (potency)): 65.9%

CCCCCCCCCC(=O)NCCC(=O)O [Compound 16-Na, N--(n-Caprinoyl)-β-alanine]
Urinary excretions (%) 0-2 hr. ([2]; Cefmetazole 125 mg (potency)): 43.1% | Urinary excretions (%) 2-4 hr. ([2]; Cefmetazole 125 mg (potency)): 19.9% | Urinary excretions (%) 4-6 hr. ([2]; Cefmetazole 125 mg (potency)): 2.9% | Urinary excretions (%) Total (0-6 hr.) ([2]; Cefmetazole 125 mg (potency)): 69.1%

CCCCCCCC(=O)Nc1ccc(C(=O)O)cc1 [Compound 17-Na, N--(n-Caprylyl)-4-aminobenzoic acid]
Urinary excretions (%) 0-2 hr. ([2]; Cefmetazole 125 mg (potency)): 45.0% | Urinary excretions (%) 2-4 hr. ([2]; Cefmetazole 125 mg (potency)): 21.1% | Urinary excretions (%) 4-6 hr. ([2]; Cefmetazole 125 mg (potency)): 3.0% | Urinary excretions (%) Total (0-6 hr.) ([2]; Cefmetazole 125 mg (potency)): 64.6%

CCCCCCCC(=O)N(C)c1ccc(C(=O)O)cc1 [Compound 18-Na, N--(n-Caprylyl)-4-methylaminobenzoic acid]
Urinary excretions (%) 0-2 hr. ([2]; 6059-S 125 mg (potency)): 42.2% | Urinary excretions (%) 2-4 hr. ([2]; 6059-S 125 mg (potency)): 18.8% | Urinary excretions (%) 4-6 hr. ([2]; 6059-S 125 mg (potency)): 3.6% | Urinary excretions (%) Total (0-6 hr.) ([2]; 6059-S 125 mg (potency)): 64.6%

O=C(N[C@@H](Cc1ccccc1)C(=O)O)c1ccccc1O [Compound 19-Na, N--(2-Hydroxybenzoyl)phenylalanine]
Urinary excretions (%) 0-2 hr. ([2]; 6059-S 125 mg (potency)): 38.0% | Urinary excretions (%) 2-4 hr. ([2]; 6059-S 125 mg (potency)): 20.0% | Urinary excretions (%) 4-6 hr. ([2]; 6059-S 125 mg (potency)): 3.1% | Urinary excretions (%) Total (0-6 hr.) ([2]; 6059-S 125 mg (potency)): 61.1%

CCCCOc1ccc(C(=O)N[C@@H](Cc2ccccc2)C(=O)O)cc1 [Compound 20-Na, N--(4-Butoxybenzoyl)phenylalanine]
Urinary excretions (%) 0-2 hr. ([2]; 6059-S 125 mg (potency)): 46.0% | Urinary excretions (%) 2-4 hr. ([2]; 6059-S 125 mg (potency)): 15.2% | Urinary excretions (%) 4-6 hr. ([2]; 6059-S 125 mg (potency)): 4.1% | Urinary excretions (%) Total (0-6 hr.) ([2]; 6059-S 125 mg (potency)): 65.3%

CCCCCC(=O)N[C@@H](Cc1ccccc1)C(=O)O [Compound 21-Na, N--Caproyl-L-phenylalanine]
Urinary excretions (%) 0-2 (hr.) [1, 3]: 16.8% | Urinary excretions (%) 2-4 (hr.) [1, 3]: 2.0% | Urinary excretions (%) 4-6 (hr.) [1, 3]: 1.1% | Urinary excretions (%) Total (0-6 hr.) [1, 3]: 19.9%

CCCCCC(=O)N[C@@H](Cc1c[nH]c2ccccc12)C(=O)O [Compound 22-Na, N--Caproyl-L-tryptophan]
Urinary excretions (%) 0-2 hr. ([2]; Cefazolin 125 mg (potency)): 40.5% | Urinary excretions (%) 2-4 hr. ([2]; Cefazolin 125 mg (potency)): 16.0% | Urinary excretions (%) 4-6 hr. ([2]; Cefazolin 125 mg (potency)): 2.0% | Urinary excretions (%) Total (0-6 hr.) ([2]; Cefazolin 125 mg (potency)): 58.5% | Urinary excretions (%) 0-2 hr. ([2]; Cephalothin 125 mg (potency)): 19.5% | Urinary excretions (%) 2-4 hr. ([2]; Cephalothin 125 mg (potency)): 2.5% | Urinary excretions (%) 4-6 hr. ([2]; Cephalothin 125 mg (potency)): 0.2% | Urinary excretions (%) Total (0-6 hr.) ([2]; Cephalothin 125 mg (potency)): 22.2%

CCCCCCCCCCCC(=O)N[C@H](C(=O)O)C(C)C [Compound 25-Na, N--Lauroyl-L-valine]
Urinary excretions (%) 0-2 hr. ([2]; Cefmetazole 125 mg (potency)): 45.0% | Urinary excretions (%) 2-4 hr. ([2]; Cefmetazole 125 mg (potency)): 10.0% | Urinary excretions (%) 4-6 hr. ([2]; Cefmetazole 125 mg (potency)): 2.0% | Urinary excretions (%) Total (0-6 hr.) ([2]; Cefmetazole 125 mg (potency)): 57.0%

CCCCCCCCCC(=O)OCC [Ethyl caprate, reference compound]
Urinary excretions of AB-PC (%) (0-6 hr.) [1]: 3.0%

CCCCCCCC(=O)OCC [Ethyl caprylate, reference compound]
Urinary excretions of AB-PC (%) (0-6 hr.) [1]: 2.9%

CC(=O)NCC(=O)[O-].[Na+] [N--Acetylglycine Na, N--Acetylglycine, reference compound]
Urinary excretions of AB-PC (%) (0-6 hr.) [1]: 2.5%

Nc1ccc(C(=O)O)cc1 [P--Aminobenzoic acid Na, P--Aminobenzoic acid, reference compound]
Urinary excretions of AB-PC (%) (0-6 hr.) [1]: 4.9%

O=C(O)Cc1ccccc1 [Phenylacetic acid Na, Phenylacetic acid, reference compound]
Urinary excretions of AB-PC (%) (0-6 hr.) [1]: 5.8%

O=C(O)CCCCCC(=O)O [Pimelic acid Na, Pimelic acid, reference compound]
Urinary excretions of AB-PC (%) (0-6 hr.) [1]: 6.0%

O=C(O)c1ccccc1O [Salicylic acid Na, Salicylic acid, reference compound]
Urinary excretions of AB-PC (%) (0-6 hr.) [1]: 9.6%
